# Laboratory results reported in patent US20150064221A1, “COMPOUNDS HAVING IMMUNOMUDULATOR ACTIVITY” (priority 2012, published 2015).
# “Also recorded” adds a separate entry of the source.
# How the values were obtained:
# SEB-induced lethal shock = test system: SEB-induced lethal shock; design: species or system mice; conditions: mouse, in vivo
# DNBS-induced colitis = assay: DNB/DNBS-induced colitis; assay type: in vivo, mice
# Procedure: Mice were injected with DNBS into the rectum and administered VGX-1027 an hour later; 4 days after, the mice were sacrificed, and the colons were isolated and analyzed. Variation in total body weight (A), stool consistency (B), macroscopic score (C), necrotic areas 9D), colon weight (E), and amount of cytokines in colon homogenate were determined Macroscopic score was determined by the following criteria: 0=no damage; 1=localized hyperaemia and/or oedema; 2=linear ulcer<half of the width of the colon; 3=linear ulcer>half the width of the colon; 4=circular ulcer<1 cm; 5=circular ulcer between 1 and 2 cm; 6=circular ulcer>2 cm.
# Within 5 days after challenge with dinitrobenzene sulfonic acid (DNB), mice develop colitis. The disease severity is evaluated based on a macroscopic score. The vehicle-treated control mice and untreated mice developed colitis with a predictable and progressive increase in inflammation and body weight loss.
# The colons of the control mice and of the VGX-1027 treated mice were removed, sectioned, fixed, and stained with hematoxylin and eosin. […] The tissue myeloperoxidase activity is a well established marker to assess the inflammatory cell (mainly neutrophils) infiltration. […] We counted an average of 8.9±1.2 (means±SD) cells/high power field of DNB-induced animals, whereas there were only 3.37±0.8 cells/high-power field in DNB-induced animals pretreated with VGX-1027 (p<0.0001).
# DNBS challenge of mice induced clinical features of colitis including weight loss, diarrhea, intestinal damage, and necrotic regions (FIG. 11a-d). […] An increase in the weight of the colon is an indirect measure of increased thickness of the walls due to inflammation.
# CAR-induced pleurisy = assay: Carrageenan (CAR)-induced pleurisy; assay type: in vivo, mice; conditions: i.p. or oral
# Procedure: VGX-1027 was administered via the intraperitoneum or orally, and the production of exudates volume (A), PCN infiltration (B), and MPO activity (C) in the lungs was determined. Data are means±SD from 2 independent experiments.
# Next, carrageenan (CAR)-induced pleurisy, a well-known model of acute inflammation mediated by leukocytes where type-1 proinflammatory cytokines such as IL-1 and TNF-α play a major pathogenic role, was evaluated. Mice that are challenged with CAR develop acute pleurisy with turbid exudates. The amount of inflammation was measured by the volume of exudates, the number of granulocytes (PCN), and the amount of Myeloperoxidase (MPO), activity in the lungs. Anti-TNF antibodies were used as a control to compare the effects of VGX-1027 with those of TNF-α blockade, which is commonly used to treat inflammatory disorders in humans.
# COX-1 = COX-1 (Homo sapiens, UniProt P23219); assay: COX-1 activity; assay type: biochemical
# COX-1, sequence (P23219 24-599): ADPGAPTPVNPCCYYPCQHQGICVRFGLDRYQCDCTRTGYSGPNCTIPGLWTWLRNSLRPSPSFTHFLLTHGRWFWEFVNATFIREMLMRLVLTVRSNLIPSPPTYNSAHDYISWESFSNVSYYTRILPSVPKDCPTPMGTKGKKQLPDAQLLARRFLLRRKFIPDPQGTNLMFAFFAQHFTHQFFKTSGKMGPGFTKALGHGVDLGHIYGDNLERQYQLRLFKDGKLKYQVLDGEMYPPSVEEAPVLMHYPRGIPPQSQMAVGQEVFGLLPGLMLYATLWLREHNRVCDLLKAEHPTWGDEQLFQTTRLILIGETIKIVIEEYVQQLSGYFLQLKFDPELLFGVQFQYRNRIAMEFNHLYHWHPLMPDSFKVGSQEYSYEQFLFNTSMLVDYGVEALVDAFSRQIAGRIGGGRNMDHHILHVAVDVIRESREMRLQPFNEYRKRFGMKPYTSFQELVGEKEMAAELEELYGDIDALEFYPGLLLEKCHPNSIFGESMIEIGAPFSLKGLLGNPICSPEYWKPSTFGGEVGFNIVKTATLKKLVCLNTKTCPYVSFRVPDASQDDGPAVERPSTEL
# Procedure: (§1) The highest plasma concentrations generally occurred in 1-2 hours. […] The highest level of inhibition was ˜35% for 2C19 at a 30 μM concentration. […] Lastly, VGX-1027 is stable in human liver S9 fractions (with phase 1 and 2 cofactors) with t1/2>90 minutes, which indicates a low likelihood of metabolism in the liver.
# Rising MTD study in mice = conditions: mouse, in vivo, 1000 mg/kg/day, read-out: Approximate Cmax
# Procedure: (Approximate Cmax@ [1000 mg/kg/day] was […]). Based on these studies, 10 mg was determined to be a safe starting dose in the human study.
# [1] = Stability in human liver S9 fractions; assay type: in vitro ADME; conditions: with phase 1 and 2 cofactors, read-out: t1/2 in human liver S9 fractions
# Procedure: as §1
# [2] = DNBS, treatment from 1 hour after DNBS
compound,measurement,setting,value
"O=C(O)CC1CC(c2ccccc2)=NO1 (stereo not shown) [VGX-1027, 3-phenyl-4,5-dihydro-5-isoxazoleacetic acid]",symptomology associated with SEB challenge,SEB-induced lethal shock,attenuated
same,survival,SEB-induced lethal shock; ip,50%
same,increase in colon weight,DNBS-induced colitis; DNB colitis,significantly lower
same,weight loss,DNBS-induced colitis; DNB colitis,significant reduction
same,tissue damage (histology),"DNBS-induced colitis; DNB colitis, treated before induction",significantly reduced
same,progression of inflammatory colitis,"DNBS-induced colitis; DNB, p<0.001",significantly attenuated
same,neutrophils infiltrating,"DNBS-induced colitis; DNB-induced animals pretreated, means±SD",3.37±0.8 cells/high-power field
same,IL-18 in colon homogenates,DNBS-induced colitis; [2],decreased amounts
same,TNF-α in colon homogenates,DNBS-induced colitis; [2],decreased amounts
same,colon weight,DNBS-induced colitis; [2],decreased
same,features of colitis / degree of protection,"DNBS-induced colitis; DNBS, treatment from 1 hour after until 4 days after DNBS",markedly improved; also recorded: comparable to that afforded by 1 mg/kg of dexamethasone
same,inflammatory cell infiltration (myeloperoxidase activity),"DNBS-induced colitis; colon tissue, 5 days after induction, p<0.0001",significant reduction
same,Myeloperoxidase (MPO) activity in the lungs,CAR-induced pleurisy,effectively decreased
same,number of granulocytes (PCN),CAR-induced pleurisy,effectively decreased
same,prevention of CAR-induced pleurisy compared with anti-TNF,CAR-induced pleurisy,as effective as anti-TNF treatment
same,volume of exudates,CAR-induced pleurisy,effectively decreased
same,inhibition of COX-1 activity,COX-1,no significant inhibition
same,Cmax,Rising MTD study in mice,~400 µg/mL
same,half-life,[1],> 1.5 h
